Assay results published in patent publication US20250034218A1, “ANTIMICROBIAL PEPTIDES” (BiomEdit, LLC, priority 2021, published 2025).
Ends that are not written are not given here.

How the values were obtained:
E. coli DH5alpha [1] = format: cell-based, Escherichia coli; settings: peptide treated with trypsin at 37° C. before MIC assay
Protocol: CAP18 peptide variants single mutants were evaluated for resistance to trypsin. Peptides were subjected to trypsin protease treatment and then assessed for bacterial cell killing (against E. coli) in a MIC assay.
(§1) CAP18 variants were synthesized from GenScript, Inc, and solubilized in sterile purified water to a final concentration of 4 mg/ml. E. coli DH5alpha was grown overnight in 10 ml LB broth. Ten microliters of each CAP18 variant was treated with 2 μl (or 2 μl of the 10-fold diluted trypsin) of trypsin (0.25%, Sigma Aldrich) and incubated at 37° C. for 2 or 5 minutes in a PCR machine. The samples were then incubated at 98° C. for 5 minutes to inactivate trypsin. An MIC assay was set up using trypsin-treated CAP18 variants in a 96-well plate. Briefly, the peptides were serially diluted 2-fold in LB broth to achieve a final volume of 50 μl in each well and 50 μl of the E. coli DH5alpha culture adjusted to a concentration of 2×10^6 cells/ml was added into each well. Appropriate controls (media only control, no CAP18 control) were included on the same plate. The plates were incubated at 37° C. for 24-48 hours and MIC for each variant was recorded. The experiment was repeated 3 times.

E. coli DH5alpha [2] = format: cell-based, Escherichia coli; settings: peptide treated with proteinase K at 37° C. before MIC assay
Protocol: CAP18 peptide variants single mutants were evaluated for resistance to proteinase K. Peptides were subjected to proteinase K treatment and then assessed for bacterial cell killing (against E. coli) in a MIC assay.
as §1, with “μl” for “μl (or 2 μl”, “proteinase K (Qjagen, >600 mAU/ml)” for “the 10-fold diluted trypsin) of trypsin (0.25%, Sigma Aldrich)”, “proteinase K.” for “trypsin.”, “proteinase K-treated” for “trypsin-treated”

E. coli DH5 alpha = format: cell-based, Escherichia coli
Protocol: A MIC assay was set up using heat treated CAP18 variants in a 96-well plate. […] Appropriate controls (media only control, no CAP18 control) were included on the same plate. The plates were incubated at 37° C. for 24-48 hours and MIC for each variant was recorded. The experiment was repeated 3 times.

Giardia = Giardia plate assay, % of control (Table 3); format: cell-based; settings: Conc 10 (uM or %); plate G7
Text: Data comparing AMP01 (wild type CAP 18 peptide (SEQ ID NO: 1) with various other agents is tabulated in Table 3. NTZ corresponds to nitazoxanide. ALB corresponds to albendazole.

[3] = test system: Escherichia coli Dh5alpha; assay: MIC with diluted or undiluted trypsin and without trypsin (variant CAP18 peptides); format: cell-based; settings: compared to WT CAP18
Protocol: Testing of CAP18 variants for protease resistance using Escherichia coli Dh5alpha as an indicator organism. CAP18 variants were synthesized from GenScript, Inc, and solubilized in sterile purified water to a final concentration of 4 mg/ml. E. coli DH5alpha was grown overnight in 10 ml LB broth. Ten microliters of each CAP18 variant was treated with 2 μl (or 2 μl of the 10-fold diluted trypsin) of trypsin (0.25%, Sigma Aldrich) and incubated at 37° C. for 2 or 5 minutes in a PCR machine. An MIC assay was set up using trypsin-treated CAP18 variants in a 96-well plate. Briefly, the peptides were serially diluted 2-fold in LB broth to achieve a final volume of 50 μl in each well and 50 μl of the E. coli DH5alpha culture adjusted to a concentration of 2×10^6 cells/ml was added into each well. Appropriate controls (media only control, no CAP18 control) were included on the same plate. The plates were incubated at 37° C. for 24-48 hours and MIC for each variant was recorded. The experiment was repeated 3 times.
Numerous variant CAP18 peptides were tested to determine and assess their resistance to protease. In each assessment, the variant CAP18 peptides were compared to wild type CAP18 rabbit sequence ([…] (SEQ ID NO:1)). Peptides were evaluated using trypsin diluted 1:10, 1:2 and undiluted. Experiments were conducted in duplicate. In each instance minimal inhibitory concentration (MIC) of the peptide was determined in the presence of the applicable diluted or undiluted trypsin and in the absence of trypsin. Experiments l and 2 are duplicate assessments with 1:10 diluted trypsin. Experiments 3 and 4 are duplicate assessments with 1:2 diluted trypsin. Experiments 5 and 6 are duplicate assessments with undiluted trypsin.

[4] = test system: Bovine Respiratory Disease (BRD); settings: positive control treatment; reduces from approximately 30%; cited from earlier work

Row | Compound | Resistance to trypsin (MIC, ug/ml) (E. coli DH5alpha [1]) [µg/mL] | Resistance to proteinase K (MIC, ug/ml) (E. coli DH5alpha [2]) [µg/mL] | Thermotolerance at 90 for 5 minutes (MIC, ug/ml) (E. coli DH5 alpha) [µg/mL] | % of control MV (Giardia) [%] | activity (MIC) and protease resistance [3] | lung consolidation [4] [%]
1 | GLRKRLRKFRNKIKPKLKKIGQKIQGLLPKLAPRTDY [C4] | >400 | >400 | 400 | – | – | –
2 | GLRKRLRKFRNKIKEKLKKIGQKIQGLLPKLAPKTDY [C11] | 200 | >400 | 200 | – | – | –
3 | CCCSc1ccc2nc(NC(=O)OC)[nH]c2c1 [ALB, albendazole] | – | – | – | 1.5 | – | –
4 | GLRKRLRKIRNKIKEKLKKIGQKIQGLLPKLAPRTDY [C12] | 100 | 200 | 100 | – | – | –
5 | GLRKRLRKFRNKIKEKLKKIGQKIQGLLPKIAPRTDY [C16] | 50 | >400 | 100 | – | – | –
6 | GLRKRIRKFRNKIKEKLKKIGQKIQGLLPKLAPRTDY [C14] | 50 | >400 | 100 | – | – | –
7 | CWTKSIPPKPCGLRKILKKIKNKIKEKLKKIGQKIQGLLPKLAPRTDY (Description of sequence: Mutation Sequence) [SEQ ID NO: 19] | – | – | – | – | better activity (lower MIC) and protease resistance | –
8 | CC(=O)Oc1ccccc1C(=O)Nc1ncc([N+](=O)[O-])s1 [NTZ, nitazoxanide] | – | – | – | 0.6 | – | –
9 | GLRKRLRKFRNKIKEKLKKIGQKIQGLLPKLAPRPDY [C6] | >400 | >400 | 1200 | – | – | –
10 | GLRKKLRKFRNKIKEKLKKIGQKIQGLLPKLAPRTDY [C8] | 50 | 400 | 100 | – | – | –
11 | GLRKRLRKFRPKIKEKLKKIGQKIQGLLPKLAPRTDY [C3] | >400 | >400 | >400 | – | – | –
12 | GLRKRLRKFRNKIKEKLKKIGQKIQGLLPKPAPRTDY [C5] | 400 | >400 | >400 | – | – | –
13 | GLKKRLRKFRNKIKEKLKKIGQKIQGLLPKLAPRTDY [C7] | 50 | >400 | 200 | – | – | –
14 | CWTKSIPPKPCGLRKKLKKIRNKIKEKLKKIGQKIQGLLPKLAPRTDY (Description of sequence: Mutation Sequence) [SEQ ID NO: 20] | – | – | – | – | better activity (lower MIC) and protease resistance | –
15 | GLRKRLKKFRNKIKEKLKKIGQKIQGLLPKLAPRTDY [C9] | 400 | 400 | 50 | – | – | –
16 | GLRKRLRPFRNKIKEKLKKIGQKIQGLLPKLAPRTDY [C2] | >400 | >400 | 100 | – | – | –
17 | CWTKSIPPKPCGCRKPLRKIRNKIKEKLKKIGQKIQGLLPKLAPRTDY (Description of sequence: Mutation Sequence) [SEQ ID NO: 22] | – | – | – | – | better activity (lower MIC) and protease resistance | –
18 | CWTKSIPPKPCGLRKRLKKIKNKIKEKLKKIGQKIQGLLPKLAPRTDY (Description of sequence: Mutation Sequence) [SEQ ID NO: 18] | – | – | – | – | effective at the lowest concentration (lowest MIC) and was the most protease resistant in all experiments | –
19 | CWTKSIPPKPCGLRKRLRKIKNKIKEKLKKIGQKIQGLLPKLAPKTDY (Description of sequence: Mutation Sequence) [SEQ ID NO: 21] | – | – | – | – | better activity (lower MIC) and protease resistance | –
20 | CCCNC[C@]1(O)[C@H](C)O[C@@H](O[C@H]2[C@H](C)[C@@H](O[C@@H]3O[C@H](C)C[C@H](N(C)C)[C@H]3O)[C@](C)(O)C[C@@H](C)CN[C@H](C)[C@@H](O)[C@](C)(O)[C@@H](CC)OC(=O)[C@@H]2C)C[C@@]1(C)OC [tulathromycin] | – | – | – | – | – | ~5
21 | GLRPRLRKFRNKIKEKLKKIGQKIQGLLPKLAPRTDY [C1] | 100 | >400 | 200 | – | – | –
22 | GIRKRLRKFRNKIKEKLKKIGQKIQGLLPKLAPRTDY [C13] | 100 | >400 | 200 | – | – | –
23 | GLRKRLRKFRNKIKEKIKKIGQKIQGLLPKLAPRTDY [C15] | 50 | >400 | 200 | – | – | –
24 | GLRKRLRKFKNKIKEKLKKIGQKIQGLLPKLAPRTDY [C10] | 50 | 400 | 100 | – | – | –
